Assay results reported in patent US9938240B2, “Fluorinated derivatives of 3-hydroxypyridin-4-ones” (Apotex Technologies Inc., priority 2009, dated 2018).

Columns and labels:
[1] = Stepwise formation constants for Cu-ligand system by potentiometric titration; type: physicochemical; settings: for pCu^2+: pH 7.4, ligand 10 μM, metal 1 μM
Experimental: In a typical experiment, the sample solution was prepared by the following method: Apo7041 (126.1 mg, 0.50 mmol) was weighed into a 50 mL volumetric flask, and about 35 mL of a mixed solvent (0.1 M NaCl aqueous:MeOH, 1:1, v:v) was added. The mixture was sonicated for 10 min to give a clear colorless solution. The copper stock solution (atomic absorption standard, Aldrich, 6.33 mL, 0.10 mmol) was pipetted into the solution. More of the mixed solvent was added to volume and the resulting solution was vortexed to mix. The molar ratio between the total copper and the total Apo7041 was 1/5. 40 mL of the solution was transferred into a T70 titration cell by using a 10 mL digital pipet. A 6.000 N sodium hydroxide solution (300 μL) was added, and the pH (12.17) of the solution was recorded. The solution was allowed to equilibrate at 22° C. for 5 min.
The solution was then titrated against a 6.000 N hydrochloric acid solution at 22° C. by using a Mettler Toledo T70 autotitrator, until the pH reached 1.5. The volume of acid added and the pH reading were recorded. Thus, 533 measurements were taken for this experiment.
The data set of pH vs. acid volume for Cu-Apo7041 system was analyzed using Hyperquad 2000 software (version 2.1, Peter Gans, University of Leeds). The formation constants for Cu-Apo7041 system were optimized using the model shown in the first column of Table 29C. The results are shown in the second and third column.
pM^n+ is defined as −log [M(H2O)m]^n+ at physiological conditions, i.e.: pH 7.4, a ligand concentration of 10 μM, and a metal concentration of 1 μM. To calculate pM^n+ for a MLn system, βn and pKa values are needed (βn are the formation constants for M^n++n L^−⇄MLn; pKa are the equilibrium constants for L^−+n H^+⇄LHn^(n-1)+). The pM^n+ is calculated using the HySS software (HYSS© 2000 Protonic Software).

[2] = Benzoic acid hydroxylation assay; settings: benzoic acid 1 mM, H2O2 6 mM, FeCl3 30 μM, chelator 30 μM, pH 7.4, up to 81 h
Excerpt: Benzoic acid is a hydroxyl radical scavenger and reacts with hydroxyl radical to give 2-hydroxy, 3-hydroxy and 4-hydroxybenzoic acids. The benzoic acid hydroxylation assay is a chemical assay designed to detect damage caused by hydroxyl radical (Dean and Nicholson, Free Radical Research 1994, vol 20, 83-101). For example, deferiprone suppresses the formation of hydroxybenzoic acids in the presence of iron salts and hydrogen peroxide, while EDTA and iron salts allow such hydroxylation reactions to take place.
This screening assay involves the use of iron salt, benzoic acid, hydrogen peroxide and the chelator and measures the ability of the chelator to inhibit the formation of hydroxybenzoate as an indicator to prevent hydroxyl radical formation in living system.
Briefly, this procedure is based on the ability of hydroxyl radicals to hydroxylate benzoate to give 2-, 3- and 4-hydroxylated benzoic acid products. Benzoic acid (1 mM) is incubated over time up to 81 h at room temperature in the dark in 10 mM phosphate buffer (pH 7.4) with 6 mM hydrogen peroxide, ferric chloride (30 μM) and the Fe chelator (30 μM). HPLC is the method of choice used to monitor and quantify the amount of 2-, 3- and 4-hydroxylated products formed over time in the reaction mixture, and can be verified against authentic benzoic acid and its hydroxylated products via their respective retention times and areas under curve. In addition, several controls are used: (i) a control without added Fe stock solution and Fe chelator; (ii) a control without added Fe chelator; (iii) EDTA as positive control; and (iv) deferiprone as negative control. The Fe-EDTA system is a hydroxyl radical generator and is known to promote hydroxylation of benzoic acid.

SV-NRA cells = test: MPP+ treated SV-NRA cell viability (MTT); type: cell-based; settings: 5 mM MPP+ treated SV-NRA cells, 20 μM, 24 h, p<0.05
Experimental: SV-NRAs cells were plated in a 96-well plate at a density of 10,000 cells/well in 100 μL of DME […], high glucose 1× liquid (Sigma) supplemented with 10% heat-inactivated FBS and 1× antibiotic/antimycotic solution (Sigma). On the next day, the cells were washed with EMEM media (Eagle's minimal essential media; phenol red, serum and glutamine free) and treated for 24 h with 5 mM MPP^+ (1-methyl-4-phenylpyridinium) in EMEM media in the presence or absence of a tested iron chelating compound. All compounds were tested at the following concentrations: 10 μM, 20 μM, and 40 μM. After 24 h of incubation, cell viability was determined with MTT ((3-(4,5-Dimethylthiazol-2-yl)-2,5-diphenyltetrazolium bromide, a yellow tetrazole) assay which measures mitochondrial activity (Carmichael et al. Cancer Research 1987, 47, 936-942). MTT solution (10 μL, 5 mg/mL) was added to the wells and incubated for 2 h. Formazan product was solubilized with 100 μL of 10% SDS (sodium dodecyl sulphate) in 0.01M HCl. Optical density was determined at 570 nm using Multiscan Ascent plate reader (Labsystems) and data collected were corrected for background signal measured at 650 nm. All data are expressed as % of control.
Co-treatment with iron chelators protected the cells from MPP^+ toxicity.

[3] = 0.1M aqueous NaCl/MeOH, 1/1, v/v
[4] = 0.1M aqueous NaCl/MeOH, 1/1, v/v, listed as drawing 104

Compound	Log β120 (Cu2+) [1, 3]	Log β121 (Cu2+) [1, 3]	Log β122 (Cu2+) [1, 3]	Logβ111 (Cu2+) [1, 3]	Log β120 (Cu2+) [1, 4]	Log β121 (Cu2+) [1, 4]	Log β122 (Cu2+) [1, 4]	pCu^2+ [1]	hydroxylation of benzoic acid by Fe chelate [2]	Logβ1 (Cu2+) [1, 3]	Logβ2 (Cu2+) [1, 3]	increase in cell viability (SV-NRA cells)
CN(C)C(c1c(O)c(=O)ccn1C)C(F)(F)F (centres unmarked) [Apo7041, 2-[1-(dimethylamino)-2,2,2-trifluoroethyl]-3-hydroxy-1-methylpyridin-4(1H)-one]	17.3	23.0	27.9	Logβ111 = 14.1	Logβ120 = 17.3	Logβ121 = 23.0	Logβ122 = 27.9	pCu^2+ = 7.7	do not promote the hydroxylation of benzoic acid			
Cc1c(O)c(=O)ccn1C [Deferiprone, 3-hydroxy-1,2-dimethylpyridin-4(1H)-one, reference compound]	20.5							pCu^2+ = 9.9		Logβ1 = 10.8	Logβ2 = 20.5	about 20%
